Structures are written as SMILES.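 Cultured in 96-well plates, cells were exposed to test compound for 48 hours across five concentrations. At the GI50, growth is halved. TGI: concentration producing complete growth inhibition.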 A value given as a limit tells only on which side of the number the result lay.

For the first assay, the system named is RPMI-8226 leukemia. Kind of assay: NCI anticancer screen, dose series, 48 h.
For the compound `COc1ccc(-c2c3c(N)nc(-c4ccncc4)nc3nc3c2c(C)nn3-c2ccccc2)cc1`, the GI50 was more than 100 µM and the TGI was more than 100 µM.

The compound `C#CCOCn1cnc2c(Cl)ncnc21` displayed a TGI of more than 100 µM.

Regarding `Oc1cccc2ccc(N/N=C/c3cc(CN4CCCCC4)c(O)c4ncccc34)nc12`, the GI50 is 0.0371 µM and the TGI turned out to be 9.29 µM.

For `COc1cccc(-n2ncc3c(N/N=C/c4ccc(C(=O)NCCN(C)C)cc4)ncnc32)c1`, the GI50 was 6.33 µM and the TGI was 12.9 µM.

The compound `O=c1/c(=C/c2ccccc2F)sc2nc3ccccc3n12` gave a TGI of more than 100 µM.

For the compound `CC1(C)CC(=O)c2c(C(F)(F)F)nn(-c3ccc(C(N)=O)c(NC4CCC(OC(=O)CN)CC4)c3)c2C1` (stereo not given), the GI50 is 0.356 µM and the TGI was more than 60.1 µM.

The compound `O=C(NCCCCCCNC(=O)n1cc(F)c(=O)[nH]c1=O)NCCCOCCOCCOCCOCCOCCOCCOCCOCCOCCOCCOCCOCCOCCOCCOCCOCCOCCOCCOCCOCCOCCCNC(=O)C(O)C(O)C(O)C(O)CO` (stereo not given) gave a TGI of more than 100 µM.

Consider `COc1cc(C2CC(c3ccc4c(c3)OCO4)=NN2C=O)cc(OC)c1OC` (stereo not given), for which the GI50 is 5.17 µM and the TGI was more than 64.6 µM.

The compound `CCCC(=O)OC1C(C(O)CO)OC2OC(C)(C)OC21` (stereo not given) displayed a TGI of more than 100 µM.

As for `COC(=O)[C@H](C[C@H](Cc1ccccc1)NC(=O)c1csc([C@@H](C[C@H](C(C)C)N(C)C(=O)[C@@H](NC(=O)[C@H]2CCCCN2C)C(C)C)OC(C)=O)n1)NC(=O)OCc1ccccc1`, the GI50 was less than 0.0009 µM and the TGI was 2.34 µM.

As for `COC(C(=O)[O][Ge]([CH3])([CH3])[CH3])c1ccccc1` (stereo not given), the GI50 is more than 100 µM and the TGI is more than 100 µM.

In turn, `CC(=O)OCC1OC(OC2C(CSC3OC(COC(C)=O)C(OC(C)=O)C(OC(C)=O)C3OC(C)=O)OC(OC(C)=O)C(OC(C)=O)C2OC(C)=O)C(OC(C)=O)C(OC(C)=O)C1OC(C)=O` (stereo not given) displayed a TGI of more than 100 µM.

In turn, `NNC(=O)/C(=C/c1ccc(Cl)cc1Cl)NC(=O)c1ccccc1` returned a TGI of more than 100 µM.

For `Nc1ccccc1C#C/C=C\C#Cc1cccs1`, the GI50 is 1.25 µM and the TGI is more than 35.7 µM.

As for `COc1ccc2c(c1)cn1c3ccc(O)cc3nc(N)c21`, the GI50 was 1.75 µM and the TGI worked out at 12.8 µM.

On to `O=C(O)/C=C\C(=O)N1C/C(=C\c2ccccc2Cl)C(=O)/C(=C/c2ccccc2Cl)C1`, for which the GI50 is 1.35 µM and the TGI is 10.3 µM.

As for `CC#C[C@]1(O)CC[C@H]2[C@@H]3CCC4=CC(=O)CCC4=C3[C@@H](c3ccc4c(c3)OCO4)C[C@@]21C`, the GI50 is 49.4 µM and the TGI was 331 µM.

The next assay deals with SK-MEL-5 melanoma. The assay can be described thus: NCI anticancer screen, dose series, 48 h.
On to `COc1ccc(-c2c3c(N)nc(-c4ccncc4)nc3nc3c2c(C)nn3-c2ccccc2)cc1`, for which the GI50 is 6.79 µM and the TGI was more than 100 µM.

In turn, `C#CCOCn1cnc2c(Cl)ncnc21` returned a TGI of more than 100 µM.

As for `Oc1cccc2ccc(N/N=C/c3cc(CN4CCCCC4)c(O)c4ncccc34)nc12`, the GI50 is 0.0239 µM and the TGI amounted to 0.0559 µM.

As for `COc1cccc(-n2ncc3c(N/N=C/c4ccc(C(=O)NCCN(C)C)cc4)ncnc32)c1`, the GI50 was 2.95 µM and the TGI worked out at 6.09 µM.

Compound `O=c1/c(=C/c2ccccc2F)sc2nc3ccccc3n12` returned a TGI of more than 100 µM.

As to `CC1(C)CC(=O)c2c(C(F)(F)F)nn(-c3ccc(C(N)=O)c(NC4CCC(OC(=O)CN)CC4)c3)c2C1` (stereo not given), the GI50 was 0.0742 µM and the TGI stood at 18.3 µM.

Compound `O=C(NCCCCCCNC(=O)n1cc(F)c(=O)[nH]c1=O)NCCCOCCOCCOCCOCCOCCOCCOCCOCCOCCOCCOCCOCCOCCOCCOCCOCCOCCOCCOCCOCCOCCCNC(=O)C(O)C(O)C(O)C(O)CO` (stereo not given) came in with a TGI of more than 100 µM.

Consider `COc1cc(C2CC(c3ccc4c(c3)OCO4)=NN2C=O)cc(OC)c1OC` (stereo not given), for which the GI50 is 2.39 µM and the TGI is 8.11 µM.

In turn, `CCCC(=O)OC1C(C(O)CO)OC2OC(C)(C)OC21` (stereo not given) displayed a TGI of more than 100 µM.

For the compound `COC(=O)[C@H](C[C@H](Cc1ccccc1)NC(=O)c1csc([C@@H](C[C@H](C(C)C)N(C)C(=O)[C@@H](NC(=O)[C@H]2CCCCN2C)C(C)C)OC(C)=O)n1)NC(=O)OCc1ccccc1`, the GI50 is less than 0.0009 µM and the TGI came out at 0.0182 µM.

Regarding `COC(C(=O)[O][Ge]([CH3])([CH3])[CH3])c1ccccc1` (stereo not given), the GI50 is more than 100 µM and the TGI is more than 100 µM.

On to `CC(=O)OCC1OC(OC2C(CSC3OC(COC(C)=O)C(OC(C)=O)C(OC(C)=O)C3OC(C)=O)OC(OC(C)=O)C(OC(C)=O)C2OC(C)=O)C(OC(C)=O)C(OC(C)=O)C1OC(C)=O` (stereo not given), for which the TGI is more than 100 µM.

In turn, `NNC(=O)/C(=C/c1ccc(Cl)cc1Cl)NC(=O)c1ccccc1` displayed a TGI of more than 100 µM.

For the compound `Nc1ccccc1C#C/C=C\C#Cc1cccs1`, the GI50 is 4.36 µM and the TGI is 17.6 µM.

Consider `COc1ccc2c(c1)cn1c3ccc(O)cc3nc(N)c21`, for which the GI50 was 0.0762 µM and the TGI was determined as 3.95 µM.

In the case of `O=C(O)/C=C\C(=O)N1C/C(=C\c2ccccc2Cl)C(=O)/C(=C/c2ccccc2Cl)C1`, the GI50 was 3.03 µM and the TGI was 12 µM.

Regarding `CC#C[C@]1(O)CC[C@H]2[C@@H]3CCC4=CC(=O)CCC4=C3[C@@H](c3ccc4c(c3)OCO4)C[C@@]21C`, the GI50 was 66.1 µM and the TGI turned out to be 199 µM.

Another assay deals with SN12C renal. Kind of assay: NCI anticancer screen, dose series, 48 h.
For the compound `COc1ccc(-c2c3c(N)nc(-c4ccncc4)nc3nc3c2c(C)nn3-c2ccccc2)cc1`, the GI50 was 44.4 µM and the TGI was more than 100 µM.

For the compound `C#CCOCn1cnc2c(Cl)ncnc21`, the TGI was more than 100 µM.

Regarding `Oc1cccc2ccc(N/N=C/c3cc(CN4CCCCC4)c(O)c4ncccc34)nc12`, the GI50 was 0.0931 µM and the TGI came out at 12.9 µM.

For the compound `COc1cccc(-n2ncc3c(N/N=C/c4ccc(C(=O)NCCN(C)C)cc4)ncnc32)c1`, the GI50 was 3.01 µM and the TGI turned out to be 6.99 µM.

As to `O=c1/c(=C/c2ccccc2F)sc2nc3ccccc3n12`, the TGI was more than 100 µM.

With `CC1(C)CC(=O)c2c(C(F)(F)F)nn(-c3ccc(C(N)=O)c(NC4CCC(OC(=O)CN)CC4)c3)c2C1` (stereo not given), the GI50 was 0.0692 µM and the TGI is more than 100 µM.

`O=C(NCCCCCCNC(=O)n1cc(F)c(=O)[nH]c1=O)NCCCOCCOCCOCCOCCOCCOCCOCCOCCOCCOCCOCCOCCOCCOCCOCCOCCOCCOCCOCCOCCOCCCNC(=O)C(O)C(O)C(O)C(O)CO` (stereo not given) registered a TGI of more than 100 µM.

With `COc1cc(C2CC(c3ccc4c(c3)OCO4)=NN2C=O)cc(OC)c1OC` (stereo not given), the GI50 is 13.6 µM and the TGI is more than 100 µM.

In turn, `CCCC(=O)OC1C(C(O)CO)OC2OC(C)(C)OC21` (stereo not given) came in with a TGI of more than 100 µM.

The values are drawn from PubChem BioAssay (NCI).
